Experimental data reported in ChEMBL document CHEMBL4265999, “Design, Synthesis, and Characterization of Novel Small Molecules as Broad Range Antischistosomal Agents” (ACS Med Chem Lett, 2018).

Tests used:
Schistosoma mansoni = assay: Antischistosomal activity against Schistosoma mansoni infected in golden syrian hamster assessed as worm killing at 143 uM pretreated for 45 mins followed by compound washout measured after 14 days; assay type: functional
Schistosoma haematobium = assay: Antischistosomal activity against Schistosoma haematobium infected in golden syrian hamster assessed as worm killing at 143 uM pretreated for 45 mins followed by compound washout measured after 14 days; assay type: functional
Schistosoma japonicum = assay: Antischistosomal activity against Schistosoma japonicum infected in golden syrian hamster assessed as worm killing at 143 uM pretreated for 45 mins followed by compound washout measured after 14 days; assay type: functional
[1] = Dissociation constant, pKa of the compound; assay type: physicochemical
[2] = Lipophilicity, log D of the compound; assay type: physicochemical; details: octanol/water

SMILES | Activity (Schistosoma mansoni) | Activity (Schistosoma haematobium) [%] | other results
O=[N+]([O-])c1cc(NC2CCCN(Cc3c[nH]c4ccccc34)C2)ccc1CO (stereo not given) | 26% |  | 
O=[N+]([O-])c1cc(NC2CCN(Cc3ccccc3F)C2)ccc1CO (stereo not given) | 30% |  | 
O=[N+]([O-])c1cc(NC2CCN(Cc3cccc(C(F)(F)F)c3)C2)ccc1CO (stereo not given) | 93% | 8 | 
O=[N+]([O-])c1cc(NC2CCCN(Cc3ccc(OC(F)(F)F)cc3)C2)ccc1CO (stereo not given) | 40% | 43 | Activity (Schistosoma japonicum): 10%
O=[N+]([O-])c1cc(NC2CCCN(Cc3ccccc3)C2)ccc1CO (stereo not given) | 60% |  | 
O=[N+]([O-])c1cc(NC2CCCN(Cc3cccc(C(F)(F)F)c3)C2)ccc1CO (stereo not given) | 100% | 2 | Activity (Schistosoma japonicum): 2%
CC(C)N1CCC(Nc2ccc(CO)c([N+](=O)[O-])c2)C1 (stereo not given) | 40% |  | 
O=[N+]([O-])c1cc(NC2CCN(Cc3ccccc3OC(F)(F)F)C2)ccc1CO (stereo not given) | 100% | <40 | 
O=[N+]([O-])c1cc(NC2CCCN(Cc3ccccc3OC(F)(F)F)C2)ccc1CO (stereo not given) | 84% | <40 | 
Cn1cncc1CN1CCCC(Nc2ccc(CO)c([N+](=O)[O-])c2)C1 (stereo not given) | 20% |  | 
O=[N+]([O-])c1cc(NC2CCN(Cc3ccc(OC(F)(F)F)cc3)C2)ccc1CO (stereo not given) | 87% | 40 | Activity (Schistosoma japonicum): 0%
O=[N+]([O-])c1cc(NC2CCN(Cc3ccc(C(F)(F)F)cc3)C2)ccc1CO (stereo not given) | 100% | 10 | 
O=[N+]([O-])c1cc(NC2CCCN(CCc3ccccc3)C2)ccc1CO (stereo not given) | 40% |  | 
O=[N+]([O-])c1cc(NC2CCCN(Cc3ccccn3)C2)ccc1CO (stereo not given) | 0% |  | 
COc1ccccc1CN1CCC(Nc2ccc(CO)c([N+](=O)[O-])c2)C1 (stereo not given) | 7% |  | 
O=[N+]([O-])c1cc(NC2CCN(Cc3ccccc3C(F)(F)F)CC2)ccc1CO | 20% |  | 

SMILES | Activity (Schistosoma mansoni) | Activity (Schistosoma haematobium) [%] | other results
Cn1cncc1CN1CCC(Nc2ccc(CO)c([N+](=O)[O-])c2)C1 (stereo not given) | 0% |  | 
O=[N+]([O-])c1cc(NC2CCN(Cc3ccc(C(F)(F)F)cc3)CC2)ccc1CO | 81% | 0 | 
O=[N+]([O-])c1cc(NC2CCCN(Cc3ccccc3C(F)(F)F)C2)ccc1CO (stereo not given) | 75% | 40 | pKa [1]: 5.9; logD [2]: 3.27; Activity (Schistosoma japonicum): 83%
O=[N+]([O-])c1cc(NC2CCN(Cc3ccccc3)C2)ccc1CO (stereo not given) | 75% |  | 
O=[N+]([O-])c1cc(NC2CCN(Cc3ccccn3)C2)ccc1CO (stereo not given) | 0% |  | 
CC(C)NCC1CCc2cc(CO)c([N+](=O)[O-])cc2N1 (stereo not given) [OXAMNIQUINE] | 50 - 85% | 0 | Activity (Schistosoma japonicum): 0%
O=[N+]([O-])c1cc(NC2CCN(Cc3c[nH]c4ccccc34)C2)ccc1CO (stereo not given) | 85% |  | 
O=[N+]([O-])c1cc(NC2CCNC2)ccc1CO (stereo not given) | 10% |  | 
O=[N+]([O-])c1cc(NC2CCN(CCc3ccccc3)C2)ccc1CO (stereo not given) | 7% |  | 
O=[N+]([O-])c1cc(NC2CCN(Cc3ccc(Cl)cc3Cl)C2)ccc1CO (stereo not given) | 17% |  | 
O=[N+]([O-])c1cc(NC2CCN(Cc3ccc(OC(F)(F)F)cc3)CC2)ccc1CO | 97% | 14 | 
CC(C)N1CCCC(Nc2ccc(CO)c([N+](=O)[O-])c2)C1 (stereo not given) | 10% |  | 
O=[N+]([O-])c1cc(NC2CCN(Cc3cccc(OC(F)(F)F)c3)C2)ccc1CO (stereo not given) | 60% |  | 
O=[N+]([O-])c1ccc(CN2CCC(Nc3ccc(CO)c([N+](=O)[O-])c3)C2)cc1 (stereo not given) | 17% |  | 
O=[N+]([O-])c1cc(NC2CCN(Cc3ccccc3C(F)(F)F)C2)ccc1CO (stereo not given) | 27% |  | 
O=[N+]([O-])c1cc(NC2CCCNC2)ccc1CO (stereo not given) | 50% |  | 
